{"source": "patent US8506930B2", "about": "“Compounds having affinity for amyloid” (Nihon Medi-Physics Co., Ltd., priority 2006, dated 2013)", "key": {"[1]": {"details": "rats, [11C]-labeled; cited from earlier work"}, "[2]": {"experiment": "Transferability into brain and clearance, Examples I-20 to I-21", "type": "in vivo, male Wistar rats", "details": "rats, intravenous injection, Table 1-7", "description": "Three animals were used for Experiment I-20 and Comparative Experiment I-9, and two animals were used for Experiment I-21 at the respective time points."}, "[3]": {"biological_target": "T1, intracerebral amyloid (aggregated Aβ1-40 injected into amygdaloid nucleus) (Homo sapiens, UniProt P05067)", "T1 construct": "Aβ1-40 (Peptide Institute, INC.) was dissolved in phosphate buffer (pH 7.4); purchased Peptide Institute, INC", "T1 sequence (P05067 672-711)": "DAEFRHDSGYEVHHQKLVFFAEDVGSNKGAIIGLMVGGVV", "experiment": "Confirmation of imaging of amyloid in brain (ex vivo autoradiogram), Example I-22", "set-up": "species or system male Wistar rat", "details": "brain slice 60 minutes after tail vein injection", "quoted_text": "(§1) (1) Aβ1-40 (manufactured by Peptide Institute, INC.) was dissolved in phosphate buffer (pH 7.4) and shaken at 37° C. for 72 hours, to obtain 1 mg/mL of a suspension of aggregated Aβ (hereinafter referred to as amyloid suspension in this Example).\n(§2) (2) 25 μL (corresponding to 25 μg) of the amyloid suspension was injected into an amygdaloid nucleus on one side of a male Wistar rat (7-week old). As a control, 25 μL of a phosphate buffered physiological saline solution (pH 7.4) was injected into an amygdaloid nucleus on the other side of the rat. The rats were examined 1 day after the injection of the amyloid suspension and the phosphate buffered physiological saline solution (pH 7.4).\n(§3) This solution was injected into the rat through the tail vein (dosage: 0.5 mL, dosed radioactivity: 16 MBq equivalent).\n(§4) (4) Brain was removed 60 minutes after the injection to prepare a brain slice of 10 μm in thickness with a microtome (type: CM3050S, manufactured by LEICA). The brain slice was exposed to an imaging plate for 20 hours, and then image analysis was carried out by use of a Bio-imaging Analyzer (type: BAS-2500; manufactured by FUJIFILM Corporation)."}, "[4]": {"system": "intracerebral amyloid (aggregated Aβ1-40 injected into amygdaloid nucleus)", "experiment": "Confirmation of imaging of amyloid in brain (ex vivo autoradiogram), Example I-22", "set-up": "species or system male Wistar rat", "details": "brain slice 60 minutes after tail vein injection", "quoted_text": "as §1, §2, §3, §4"}, "[5]": {"experiment": "Partition coefficient based on the octanol extraction method, Examples II-20 to II-21", "type": "physicochemical", "details": "octanol / 10 mmol/L phosphate buffer (pH 7.4); Table 2-6", "quoted_text": "To 2 mL of octanol, 10 μL each of the prepared sample solution was added, and 2 mL of 10 mmol/L phosphate buffer (pH 7.4) was further added, followed by stirring for 30 seconds. After the mixture was centrifuged with a low-speed centrifuge (2000 rpm×60 min.), the octanol layer and the water layer were sampled each in an amount of 1 mL, and subjected to measurement of radioactivity count with an autowell gamma system (Type: ARC-301B, manufactured by Aloka). Using the obtained radioactivity count, log Poctanol was calculated in accordance with the equation (2-4)."}, "[6]": {"experiment": "Transferability into brain and clearance, Examples II-22 to II-23", "type": "in vivo, male Wistar rats", "details": "rats, intravenous injection, Table 2-7", "quoted_text": "0.05 mL each of the prepared sample solutions was injected under thiopental anesthesia into the tail vein of the respective Wistar rat (7-week old). The rats were sacrificed by bleeding from abdominal artery, and brains were removed and subjected to measurement of mass of brains and further subjected to measurement of radioactivity (hereinafter referred to as A in this Example) with a single channel analyzer (detector type SP-20 manufactured by OHYO KOKEN KOGYO Co., Ltd.) 2, 5, 30, and 60 minutes after the injection. Further, the radioactivity level of the rest of the whole body was measured in the same manner as above (hereinafter referred to as B in this Example). Using these measurement results, radioactive distribution per unit weight of brain (% ID/g) at the respective time points were calculated in accordance with the following formula (2-5).\nThree animals were used for the experiment at the respective time points."}, "[7]": {"biological_target": "T2, intracerebral amyloid (aggregated Aβ1-42 injected into amygdaloid nucleus) (Homo sapiens, UniProt P05067)", "T2 construct": "Aβ1-42 (Wako) was dissolved in phosphate buffer (pH 7.4); purchased Wako", "T2 sequence (P05067 672-713)": "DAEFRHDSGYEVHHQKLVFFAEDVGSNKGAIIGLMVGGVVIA", "experiment": "Confirmation of imaging of amyloid in brain (ex vivo autoradiogram), Examples II-24 to II-25", "set-up": "species or system male Wistar rat", "details": "brain slice 60 minutes after tail vein injection", "quoted_text": "(§5) (2) 2.5 μL (corresponding to 25 μg) of the amyloid suspension was injected into an amygdaloid nucleus on one side of a male Wistar rat (7-week old). As a control, 2.5 μL of a phosphate buffered physiological saline solution (pH 7.4) was injected into an amygdaloid nucleus on the other side of the rat. The rats were examined 1 day after the injection of the amyloid suspension and the phosphate buffered physiological saline solution (pH 7.4).\n(§6) This solution was injected under thiopental anesthesia into the rat through the tail vein (dosage: 0.5 mL, dosed radioactivity: 11-15 MBq equivalent).\nas §4"}, "[8]": {"system": "intracerebral amyloid (aggregated Aβ1-42 injected into amygdaloid nucleus)", "experiment": "Confirmation of imaging of amyloid in brain (ex vivo autoradiogram), Examples II-24 to II-25", "set-up": "species or system male Wistar rat", "details": "for accumulation of radioactivity at sites other than the site to which amyloid was injected: autoradiogram, 60 minutes after tail vein injection; for accumulation of radioactivity in amygdaloid nucleus on the side to which the physiological saline solution was injected: brain slice 60 minutes after tail vein injection", "quoted_text": "as §5, §6, §4"}, "[9]": {"experiment": "Transferability into brain and clearance (2), Example I-30", "type": "in vivo, male Wistar rats", "details": "rats, intravenous injection, Table 1-10", "quoted_text": "0.05 mL each of these solutions was injected under thiopental anesthesia into the tail vein of respective Wistar rats (7-week old). The rats were sacrificed by bleeding from abdominal artery, and brains were removed and subjected to measurement of mass of brains and further subjected to measurement of radioactivity (hereinafter referred to as A in this Example) with a single channel analyzer (detector type: SP-20 manufactured by OHYO KOKEN KOGYO Co., Ltd.) 2, 5, 30 and 60 minutes after the injection. Also, radioactivity (hereinafter referred to as B in this Example) of the rest of the whole body was measured in the same manner as above. Using these measurement results, radioactive distribution per unit weight of brain (% ID/g) at the respective time points were calculated in accordance with the following formula (1-7).\nThree animals were used for experiment at the respective time points."}, "[10]": {"biological_target": "T2, intracerebral amyloid (aggregated Aβ1-42 injected into amygdaloid nucleus)", "experiment": "Confirmation of imaging of amyloid in brain (ex vivo autoradiogram), Example I-31", "set-up": "species or system male Wistar rat", "details": "brain slice 60 minutes after tail vein injection", "quoted_text": "(§7) (1) Aβ1-42 (Wako) was dissolved in phosphate buffer (pH 7.4) and shaken at 37° C. for 72 hours, to obtain a 1 mg/mL suspension of aggregated Aβ (hereinafter referred to as amyloid suspension in this Example).\nas §5, §6, §4"}, "[11]": {"system": "intracerebral amyloid (aggregated Aβ1-42 injected into amygdaloid nucleus)", "experiment": "Confirmation of imaging of amyloid in brain (ex vivo autoradiogram), Example I-31", "set-up": "species or system male Wistar rat", "quoted_text": "as §7, §5, §6, §4"}, "[12]": {"biological_target": "T3, amyloid (aggregated Aβ1-40) (Homo sapiens, UniProt P05067)", "T3 construct": "Aβ1-40 (Peptide Institute, INC.) was dissolved in phosphate buffer (pH 7.4); purchased Peptide Institute, INC", "T3 sequence (P05067 672-711 limits assumed)": "as the sequence (P05067 672-711) above", "experiment": "Measurement of binding to amyloid (radiolabelled compound, glass fiber filtration)", "details": "amyloid 2.5-1000 nmol/L, 22° C., 3 hours", "procedure": "(7) A relation between the amount of the Compound I-6 binding to amyloid and the amount of added amyloid was evaluated from the measurement results of (6). Unspecific binding was determined using a sample to which the Compound I-2 (non-RI labeled compound) was added to become 100 nM (at a final concentration) above in (4) (Example I-7).\n(8) Using [^125I]-IMPY synthesized in the above Reference Example I-6, the same procedure as the above (2) to (6) were carried out to obtain control data (Comparative Example I-1).\nA relation between the concentration of amyloid in the sample solution and the radioactive count on the glass fiber filter measured above in (6) is shown in FIG. 1-11. The radioactivity on the glass fiber was increased proportionally to the concentration (addition amount) of amyloid (Example I-7). […] Therefore, the radioactive count on the glass fiber is a value reflecting the amount of the compound attached to amyloid, and the slope of the graph which plotted the radioactive count relative to the concentration of amyloid is a value which can be an index representing the intensity of binding to amyloid."}, "[13]": {"experiment": "Partition coefficient based on HPLC", "type": "physicochemical", "details": "50 mM triethylamine phosphate (pH 7.2)/acetonitrile=40/60; log PHPLC=0.96(log10K′HPLC)+1.59", "procedure": "The partition coefficient by HPLC (hereinafter referred to as log PHPLC) was measured by the following method.\nFirst, compounds for evaluation shown in Table 1-5 were dissolved at a concentration of 1 mg/mL in methanol containing 10% dimethylsulfoxide to prepare sample solutions. One μL of the sample solution was subjected to HPLC analysis under the following conditions to determine the elution time (t0) of the solvent and the elution time (tR) of each compound. […]\nUsing the obtained t0 and tR, the retention factor (hereinafter referred to as K′HPLC value) of each compound for evaluation was determined according to the following calculation formula (1-3). […]\nAfter the individual solutions were stirred for 30 seconds, the solutions were centrifuged at 2,000 rpm for 60 minutes. 1 mL each of the octanol phase and the water phase was fractionated, and the radioactivity was measured by an autowell gamma system (manufactured by Aloka Co., Ltd.: Type ARC-301B). Based on the obtained radioactivity, log Poctanol values were calculated according to the above equation (1-2). […]\nUsing K′HPLC obtained for each compound for evaluation, the log PHPLC value of each compound for evaluation was determined according to the above calculation formula (1-4)."}, "[14]": {"details": "International Publication WO03/106439 pamphlet; cited from earlier work"}}}
{"compound": "CNc1ccc(/C=C/c2ccc(O)cc2)cc1", "note": "[SB-13, (E)-4-methylamino-4′-hydroxystilbene]", "values": [{"measurement": "clearance from normal tissues", "setting": "[1]", "value": "it cannot be said that the clearance is sufficiently fast"}]}
{"compound": "FCCCOc1ccc(-c2cn3cc([123I])ccc3n2)cc1", "note": "[Compound I-7, 2-[4′-(3″-fluoropropoxy)phenyl]-6-[^123I]iodoimidazo[1,2-a]pyridine]", "values": [{"measurement": "Radioactive distribution in brain per unit weight, After 2 min.", "setting": "[2]; 2 min.", "value": 1.10, "unit": "% ID/g"}, {"measurement": "Radioactive distribution in brain per unit weight, After 5 min.", "setting": "[2]; 5 min.", "value": 0.75, "unit": "% ID/g"}, {"measurement": "Radioactive distribution in brain per unit weight, After 30 min.", "setting": "[2]; 30 min.", "value": 0.12, "unit": "% ID/g"}, {"measurement": "Radioactive distribution in brain per unit weight, After 60 min.", "setting": "[2]; 60 min.", "value": 0.05, "unit": "% ID/g"}, {"measurement": "accumulation of radioactivity in amygdaloid nucleus on the side to which the amyloid suspension was injected", "setting": "[3]", "value": "marked accumulation of radioactivity"}, {"measurement": "accumulation of radioactivity in amygdaloid nucleus on the side to which the physiological saline solution was injected", "setting": "[4]", "value": "no significant accumulation of radioactivity"}]}
{"compound": "OCCOc1cccc(-c2cn3cc([123I])ccc3n2)c1", "note": "[Compound II-4, 2-[3′-(2″-hydroxyethoxy)phenyl]-6-[^123I]iodoimidazo[1,2-a]pyridine]", "values": [{"measurement": "logPoctanol value", "setting": "[5]", "value": 2.5}, {"measurement": "Radioactive distribution in brain per unit weight, After 2 min.", "setting": "[6]", "value": 0.56, "unit": "% ID/g"}, {"measurement": "Radioactive distribution in brain per unit weight, After 5 min.", "setting": "[6]", "value": 0.28, "unit": "% ID/g"}, {"measurement": "Radioactive distribution in brain per unit weight, After 30 min.", "setting": "[6]", "value": 0.04, "unit": "% ID/g"}, {"measurement": "Radioactive distribution in brain per unit weight, After 60 min.", "setting": "[6]", "value": 0.01, "unit": "% ID/g"}, {"measurement": "accumulation of radioactivity in amygdaloid nucleus on the side to which the amyloid suspension was injected", "setting": "[7]", "value": "marked accumulation of radioactivity"}, {"measurement": "accumulation of radioactivity at sites other than the site to which amyloid was injected", "setting": "[8]", "value": "little accumulation of radioactivity"}, {"measurement": "accumulation of radioactivity in amygdaloid nucleus on the side to which the physiological saline solution was injected", "setting": "[8]", "value": "no significant accumulation of radioactivity"}]}
{"compound": "FCCOc1ccc(-c2cn3cc([123I])ccc3n2)cc1", "note": "[Compound I-9, 2-[4′-(2″-fluoroethoxy)phenyl]-6-[^123I]iodoimidazo[1,2-a]pyridine]", "values": [{"measurement": "Radioactive distribution in brain per unit weight, After 2 min.", "setting": "[9]; 2 min.", "value": 0.72, "unit": "% ID/g"}, {"measurement": "Radioactive distribution in brain per unit weight, After 5 min.", "setting": "[9]; 5 min.", "value": 0.49, "unit": "% ID/g"}, {"measurement": "Radioactive distribution in brain per unit weight, After 30 min.", "setting": "[9]; 30 min.", "value": 0.07, "unit": "% ID/g"}, {"measurement": "Radioactive distribution in brain per unit weight, After 60 min.", "setting": "[9]; 60 min.", "value": 0.02, "unit": "% ID/g"}, {"measurement": "accumulation of radioactivity in amygdaloid nucleus on the side to which the amyloid suspension was injected", "setting": "[10]", "value": "marked accumulation of radioactivity"}, {"measurement": "accumulation of radioactivity at sites other than the sites to which amyloid was injected", "setting": "[11]; autoradiogram, 60 minutes after tail vein injection", "value": "little accumulation of radioactivity"}, {"measurement": "accumulation of radioactivity in amygdaloid nucleus on the side to which the physiological saline solution was injected", "setting": "[11]; brain slice 60 minutes after tail vein injection", "value": "no significant accumulation of radioactivity"}]}
{"compound": "FCCCOc1ccc(-c2cn3cc([125I])ccc3n2)cc1", "note": "[Compound I-6, 2-[4′-(3″-fluoropropoxy)phenyl]-6-[^125I]iodoimidazo[1,2-a]pyridine]", "values": [{"measurement": "slope of radioactive count on the glass fiber relative to the concentration of amyloid (index of intensity of binding to amyloid)", "setting": "[12]", "value": "greater than the slope for [^125I]-IMPY"}]}
{"compound": "CN(C)c1ccc(-c2cn3cc(I)ccc3n2)cc1", "note": "[IMPY, 6-iodo-2-[4′-(N,N-dimethylamino)phenyl]imidazo[1,2-a]pyridine]", "values": [{"measurement": "logPHPLC value", "setting": "[13]", "value": 2.1}, {"measurement": "reverse mutation test result", "setting": "[14]", "value": "positive"}]}
{"compound": "OCCCOc1ccc(-c2cn3cc([123I])ccc3n2)cc1", "note": "[Compound II-6, 2-[4′-(3″-hydroxypropoxy)phenyl]-6-[^123I]iodoimidazo[1,2-a]pyridine]", "values": [{"measurement": "logPoctanol value", "setting": "[5]", "value": 2.1}, {"measurement": "Radioactive distribution in brain per unit weight, After 2 min.", "setting": "[6]", "value": 0.81, "unit": "% ID/g"}, {"measurement": "Radioactive distribution in brain per unit weight, After 5 min.", "setting": "[6]", "value": 0.56, "unit": "% ID/g"}, {"measurement": "Radioactive distribution in brain per unit weight, After 30 min.", "setting": "[6]", "value": 0.07, "unit": "% ID/g"}, {"measurement": "Radioactive distribution in brain per unit weight, After 60 min.", "setting": "[6]", "value": 0.02, "unit": "% ID/g"}, {"measurement": "accumulation of radioactivity in amygdaloid nucleus on the side to which the amyloid suspension was injected", "setting": "[7]", "value": "marked accumulation of radioactivity"}, {"measurement": "accumulation of radioactivity at sites other than the site to which amyloid was injected", "setting": "[8]", "value": "little accumulation of radioactivity"}, {"measurement": "accumulation of radioactivity in amygdaloid nucleus on the side to which the physiological saline solution was injected", "setting": "[8]", "value": "no significant accumulation of radioactivity"}]}
